Data taken from patent US20250312352A1, “GLP-1R MODULATING COMPOUNDS” (Gilead Sciences, Inc., priority 2021, published 2025).

molecular target: T1, GLP-1R (Homo sapiens, UniProt P43220); test: GLP-1R activation cAMP assay (Assay 1 or Assay 2); type: cell-based; conditions: cAMP increase in CHO cells stably expressing GLP-1R; compounds run on one of the two cAMP assays
T1 construct: host or cells: CHO cells
Procedure, shortened: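 CHO cells stably expressing human GLP-1R were incubated 1 h in HBSS/20 mM HEPES/0.1% BSA, then exposed to 10-point agonist dilutions for 30 min at 37 °C. cAMP increase was measured with an HTRF Gs dynamic kit; EC50 from sigmoidal fit of response versus log concentration.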

T1 sequence (P43220 24-463): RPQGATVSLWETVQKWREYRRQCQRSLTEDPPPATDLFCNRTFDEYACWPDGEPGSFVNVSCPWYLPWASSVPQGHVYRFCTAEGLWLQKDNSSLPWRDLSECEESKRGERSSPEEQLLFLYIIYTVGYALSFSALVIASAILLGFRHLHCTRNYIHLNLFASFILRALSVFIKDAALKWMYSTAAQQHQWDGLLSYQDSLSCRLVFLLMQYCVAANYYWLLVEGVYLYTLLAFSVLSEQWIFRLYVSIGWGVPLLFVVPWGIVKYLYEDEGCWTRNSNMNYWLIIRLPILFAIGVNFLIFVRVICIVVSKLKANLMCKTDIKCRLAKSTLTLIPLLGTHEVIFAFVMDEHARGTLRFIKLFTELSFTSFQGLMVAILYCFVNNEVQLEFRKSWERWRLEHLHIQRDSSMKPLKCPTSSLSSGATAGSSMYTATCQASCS

EC50 [nM]	SMILES
1.93	O=C(O)c1ccc2nc(Cc3cc(F)c(-c4cccc(OCc5cc6n(n5)CCCC6)n4)cc3F)n(C[C@@H]3CCO3)c2c1 [Example 70, (S)-2-(2,5-difluoro-4-(6-((4,5,6,7-tetrahydropyrazolo[1,5-a]pyridin-2-yl)methoxy)pyridin-2-yl)benzyl)-1-(oxetan-2-ylmethyl)-1H-benzo[d]imidazole-6-carboxylic acid]
0.11	Cn1cc(C#Cc2cnc(COc3cccc(-c4cc(F)c(Cc5nc6ccc(C(=O)O)cc6n5C[C@@H]5CCO5)cc4F)n3)s2)cn1 [Example 114, (S)-2-(2,5-difluoro-4-(6-((5-((1-methyl-1H-pyrazol-4-yl)ethynyl)thiazol-2-yl)methoxy)pyridin-2-yl)benzyl)-1-(oxetan-2-ylmethyl)-1H-benzo[d]imidazole-6-carboxylic acid]
0.39	C[C@@H](C#N)NC(=O)c1cc(Cl)c(COc2cccc(-c3cc(F)c(Cc4nc5ccc(C(=O)O)cc5n4C[C@@H]4CCO4)cc3F)n2)cn1 [Example 201, 2-(4-(6-((4-chloro-6-(((S)-1-cyanoethyl)carbamoyl)pyridin-3-yl)methoxy)pyridin-2-yl)-2,5-difluorobenzyl)-1-(((S)-oxetan-2-yl)methyl)-1H-benzo[d]imidazole-6-carboxylic acid]
0.183	O=C(O)c1ccc2nc(Cc3cc(F)c(-c4cccc(OCc5ncc(C#Cc6ccc(F)cc6)cc5F)n4)cc3F)n(C[C@@H]3CCO3)c2c1 [Example 284, (S)-2-(2,5-difluoro-4-(6-((3-fluoro-5-((4-fluorophenyl)ethynyl)pyridin-2-yl)methoxy)pyridin-2-yl)benzyl)-1-(oxetan-2-ylmethyl)-1H-benzo[d]imidazole-6-carboxylic acid]
1.95	N#Cc1cc(COc2cccc(-c3cc(F)c(Cc4nc5ccc(C(=O)O)cc5n4C[C@@H]4CCO4)cc3F)n2)cs1 [Example 128, (S)-2-(4-(6-((5-cyanothiophen-3-yl)methoxy)pyridin-2-yl)-2,5-difluorobenzyl)-1-(oxetan-2-ylmethyl)-1H-benzo[d]imidazole-6-carboxylic acid]
3.45	COCCn1c(Cc2cc(F)c(-c3cccc(OCc4ccc(-c5cnn(CCN6CCOCC6)c5)cc4F)n3)cc2F)nc2ccc(C(=O)O)cc21 [Example 227, 2-(2,5-difluoro-4-(6-((2-fluoro-4-(1-(2-morpholinoethyl)-1H-pyrazol-4-yl)benzyl)oxy)pyridin-2-yl)benzyl)-1-(2-methoxyethyl)-1H-benzo[d]imidazole-6-carboxylic acid]
0.535	CC(F)(F)c1cnc(COc2cccc(-c3cc(F)c(Cc4nc5ccc(C(=O)O)cc5n4[C@@H]4COCC4(C)C)cc3F)n2)s1 [Example 425, (S)-2-(4-(6-((5-(1,1-difluoroethyl)thiazol-2-yl)methoxy)pyridin-2-yl)-2,5-difluorobenzyl)-1-(4,4-dimethyltetrahydrofuran-3-yl)-1H-benzo[d]imidazole-6-carboxylic acid]
0.367	Cc1cc(Cc2nc3c(F)cc(C(=O)O)cc3n2[C@@H]2COCC2(C)C)c(F)cc1-c1ccc(F)c(OCc2ncc(C(F)(F)F)s2)n1 [Example 436, (S)-1-(4,4-dimethyltetrahydrofuran-3-yl)-4-fluoro-2-(2-fluoro-4-(5-fluoro-6-((5-(trifluoromethyl)thiazol-2-yl)methoxy)pyridin-2-yl)-5-methylbenzyl)-1H-benzo[d]imidazole-6-carboxylic acid]
0.69	O=C(O)c1ccc2nc(Cc3cc(F)c(-c4cccc(OCc5cnc(C(=O)NCC(F)(F)F)cc5Cl)n4)cc3F)n(C[C@@H]3CCO3)c2c1 [Example 191, (S)-2-(4-(6-((4-chloro-6-((2,2,2-trifluoroethyl)carbamoyl)pyridin-3-yl)methoxy)pyridin-2-yl)-2,5-difluorobenzyl)-1-(oxetan-2-ylmethyl)-1H-benzo[d]imidazole-6-carboxylic acid]
0.622	Cc1nc(C)c(COc2cccc(-c3cc(F)c(Cc4nc5ccc(C(=O)O)cc5n4C[C@@H]4CCO4)cc3F)n2)s1 [Example 354, (S)-2-(4-(6-((2,4-dimethylthiazol-5-yl)methoxy)pyridin-2-yl)-2,5-difluorobenzyl)-1-(oxetan-2-ylmethyl)-1H-benzo[d]imidazole-6-carboxylic acid]
0.16	CC1(C#Cc2ccc(COc3cccc(-c4cc(F)c(Cc5nc6ccc(C(=O)O)cc6n5C[C@@H]5CCO5)cc4F)n3)s2)COC1 [Example 113, (S)-2-(2,5-difluoro-4-(6-((5-((3-methyloxetan-3-yl)ethynyl)thiophen-2-yl)methoxy)pyridin-2-yl)benzyl)-1-(oxetan-2-ylmethyl)-1H-benzo[d]imidazole-6-carboxylic acid]
23.6	Cn1cncc1COc1cccc(-c2cc(F)c(Cc3nc4ccc(C(=O)O)cc4n3C[C@@H]3CCO3)cc2F)n1 [Example 178, (S)-2-(2,5-difluoro-4-(6-((1-methyl-1H-imidazol-5-yl)methoxy)pyridin-2-yl)benzyl)-1-(oxetan-2-ylmethyl)-1H-benzo[d]imidazole-6-carboxylic acid]
0.33	O=C(O)c1ccc2nc(Cc3cc(F)c(-c4cccc(OCc5ccc(C#Cc6nccs6)cc5F)n4)cc3F)n(C[C@@H]3CCO3)c2c1 [Example 141, (S)-2-(2,5-difluoro-4-(6-((2-fluoro-4-(thiazol-2-ylethynyl)benzyl)oxy)pyridin-2-yl)benzyl)-1-(oxetan-2-ylmethyl)-1H-benzo[d]imidazole-6-carboxylic acid]
0.18	O=C(O)c1ccc2nc(Cc3cc(F)c(-c4cccc(OCc5ncc(-c6cccnc6)s5)n4)cc3F)n(C[C@@H]3CCO3)c2c1 [Example 108, (S)-2-(2,5-difluoro-4-(6-((5-(pyridin-3-yl)thiazol-2-yl)methoxy)pyridin-2-yl)benzyl)-1-(oxetan-2-ylmethyl)-1H-benzo[d]imidazole-6-carboxylic acid]
0.08	O=C(O)c1ccc2nc(Cc3cc(F)c(-c4cccc(OCc5cnc(-c6cnn(C7CC7)c6)cc5F)n4)cc3F)n(C[C@@H]3CCO3)c2c1 [Example 161, (S)-2-(4-(6-((6-(1-cyclopropyl-1H-pyrazol-4-yl)-4-fluoropyridin-3-yl)methoxy)pyridin-2-yl)-2,5-difluorobenzyl)-1-(oxetan-2-ylmethyl)-1H-benzo[d]imidazole-6-carboxylic acid]
0.355	Cn1cc(-c2ncc(COc3cccc(-c4cc(F)c(Cc5nc6ccc(C(=O)O)cc6n5C[C@@H]5CCO5)cc4F)n3)s2)cn1 [Example 355, (S)-2-(2,5-difluoro-4-(6-((2-(1-methyl-1H-pyrazol-4-yl)thiazol-5-yl)methoxy)pyridin-2-yl)benzyl)-1-(oxetan-2-ylmethyl)-1H-benzo[d]imidazole-6-carboxylic acid]
0.28	O=C(O)c1ccc2nc(Cc3cc(F)c(-c4ccc(F)c(OCc5ncc(C(F)(F)F)s5)n4)cc3F)n(C[C@@H]3CCO3)c2c1 [Example 370, (S)-2-(2,5-difluoro-4-(5-fluoro-6-((5-(trifluoromethyl)thiazol-2-yl)methoxy)pyridin-2-yl)benzyl)-1-(oxetan-2-ylmethyl)-1H-benzo[d]imidazole-6-carboxylic acid]
0.017	CNC(=O)c1cc(Cl)c(COc2cccc(-c3cc(F)c(Cc4nc5c(F)cc(C(=O)O)cc5n4CC4(CF)CC4)c(F)c3F)n2)cn1 [Example 398, 2-(4-(6-((4-chloro-6-(methylcarbamoyl)pyridin-3-yl)methoxy)pyridin-2-yl)-2,3,6-trifluorobenzyl)-4-fluoro-1-((1-(fluoromethyl)cyclopropyl)methyl)-1H-benzo[d]imidazole-6-carboxylic acid]
8.29	N#Cc1nc(COc2cccc(-c3cc(F)c(Cc4nc5ccc(C(=O)O)cc5n4C[C@@H]4CCO4)cc3F)n2)cs1 [Example 170, (S)-2-(4-(6-((2-cyanothiazol-4-yl)methoxy)pyridin-2-yl)-2,5-difluorobenzyl)-1-(oxetan-2-ylmethyl)-1H-benzo[d]imidazole-6-carboxylic acid]
2.19	NC(=O)CNC(=O)c1ccc(COc2cccc(-c3cc(F)c(Cc4nc5ccc(C(=O)O)cc5n4C[C@@H]4CCO4)cc3F)n2)cn1 [Example 176, (S)-2-(4-(6-((6-((2-amino-2-oxoethyl)carbamoyl)pyridin-3-yl)methoxy)pyridin-2-yl)-2,5-difluorobenzyl)-1-(oxetan-2-ylmethyl)-1H-benzo[d]imidazole-6-carboxylic acid]
0.537	CC(C)(C)C#Cc1cnc(COc2cccc(-c3cc(F)c(Cc4nc5ccc(C(=O)O)cc5n4C[C@@H]4CCO4)cc3F)n2)s1 [Example 320, (S)-2-(4-(6-((5-(3,3-dimethylbut-1-yn-1-yl)thiazol-2-yl)methoxy)pyridin-2-yl)-2,5-difluorobenzyl)-1-(oxetan-2-ylmethyl)-1H-benzo[d]imidazole-6-carboxylic acid]
8.36	COCCn1c(Cc2cc(F)c(-c3cccc(OCc4ccc(-c5cnn(C6CCOCC6)c5)cc4F)n3)cc2F)nc2ccc(C(=O)O)cc21 [Example 226, 2-(2,5-difluoro-4-(6-((2-fluoro-4-(1-(tetrahydro-2H-pyran-4-yl)-1H-pyrazol-4-yl)benzyl)oxy)pyridin-2-yl)benzyl)-1-(2-methoxyethyl)-1H-benzo[d]imidazole-6-carboxylic acid]
0.058	CC(F)(F)c1cnc(COc2nc(-c3cc(F)c(Cc4nc5ccc(C(=O)O)cc5n4[C@@H]4COCC4(C)C)cc3F)ccc2F)s1 [Example 340, (S)-2-(4-(6-((5-(1,1-difluoroethyl)thiazol-2-yl)methoxy)-5-fluoropyridin-2-yl)-2,5-difluorobenzyl)-1-(4,4-dimethyltetrahydrofuran-3-yl)-1H-benzo[d]imidazole-6-carboxylic acid]

SMILES	EC50 [nM]
O=C(O)c1ccc2nc(Cc3cc(F)c(-c4cccc(OCc5nnc(OC6CCC6)s5)n4)cc3F)n(C[C@@H]3CCO3)c2c1 [Example 344, (S)-2-(4-(6-((5-cyclobutoxy-1,3,4-thiadiazol-2-yl)methoxy)pyridin-2-yl)-2,5-difluorobenzyl)-1-(oxetan-2-ylmethyl)-1H-benzo[d]imidazole-6-carboxylic acid]	0.055
